# Data as given in patent US9249086B2, “Carboxylic acid ALA esters” (Photocure ASA, priority 2012, dated 2016).
# Counter-ions that a name gives are not always drawn. Like-named read-outs stand apart in the source and are kept apart here. Marks after values point to notes of the source that are not given here.
# How the values were obtained:
# [1] = test system: WiDr cells; conditions: MTS assay; for Dark toxicity (cell toxicity in the absence of light): 0.001-1 mM, 4 hours incubation in the dark
# Description: Stock solutions of the compounds above were prepared by dissolving them in DMSO to a concentration of 100 mM. Concentrations used in the experiments were obtained by diluting the stock solutions with PBS or cell culture medium.
# WiDr cells derived from a primary adenocarcinoma of the rectosigmoid colon were subcultured in RPMI 1640 medium (Gibco) containing 10% fetal calf serum, 100 U/ml penicillin, 100 μg/ml streptomycin and 1% glutamine. Cells were split 1:100 twice a week, and maintained at 37° C. and 5% CO2 in a humid environment. For carrying out the experiments, 5×10^5 WiDr cells in 2 ml of the medium described above were added to each well of 6-well plastic tissue-culture plates (Nunc) and left for 48 hr at 37° C. and 5% CO2 in a humid environment for proper attachment to the substrate. The cells were then washed twice with RPMI 1640-medium without serum, followed by the addition to the wells of the appropriate dilutions of the compounds and references above in 2 ml of fresh culture medium to final concentrations of 0.001, 0.003, 0.01, 0.03, 0.1, 0.3 and 1 mM in duplicates. To two wells, only 2 ml of fresh culture medium was added. These untreated cells served as a control. The cells were incubated at 37° C. for four hours in the dark.
# Dark toxicity, i.e. cell toxicity in the absence of light, was measured by MTS assay immediately after the above-described 4 hours of incubation with the compounds and references at various concentrations.
# [2] = test system: WiDr cells; assay: In vitro PpIX formation in cancer cells; type: cell-based
# Description: These untreated cells served as a control.
# After treatment with the compounds of the invention and reference compounds as described above, the cells were washed twice with PBS and scraped off the substrate with a Costar cell scraper into a solution of 1M HClO4 in 50% methanol. Cell debris was removed by centrifugation. PpIX was quantitatively extracted from the cells with this procedure. The PpIX content in each sample was determined fluorometrically using a Perkin Elmer LS50B spectrofluorimeter. PpIX was excited at 407 nm, and the emitted fluorescence was measured at 606 nm using a long pass cut-off filter (530 nm) on the emission side. A standard of known PpIX concentration was added to the samples at concentrations increasing the total fluorescence by 50-100%. The PpIX concentration in each sample was calculated relative to the protein content in control cells as measured by a bicinchoninic acid protein assay.
# [3] = test system: skin of healthy nude mice; assay: In vivo skin fluorescence study in healthy nude mice; conditions: cream in Unguentum Merck, equimolar (16-19%), about 100 μl on back, 6 hours in the dark, excitation 365 and 405 nm, mean of 5 mice
# Description: A study was carried out to assess the potential of the compounds of the invention as precursors for photosensitisers for skin application. As such, the compounds of the invention need to be able to penetrate the skin, to be taken up by the cells in the skin and to be converted to photosensitisers. The result of this process can be visualized by exposing the skin to light which excites the photosensitiser molecules and to determine the amount of energy which is released in the form of fluorescence when the excited photosensitiser molecules relax to an energetically lower state.
# Compounds 2, 4 and 7 above were formulated as creams in Unguentum Merck. The compounds were tested in equimolar amounts:
# 3 groups of mice (5 mice/group, each mouse of one group receiving the same cream formulation) were included in the experiment. About 100 μl of cream formulation was applied onto the back of one mouse. The mice were kept in the dark for 6 hours prior to skin fluorescence measurement to avoid photobleaching. For assessment of skin fluorescence, a fluorescence camera (Medeikonos PDD/PDT, Medeikonos AB, Gothenburg, Sweden) was used and images of the back of each mouse were taken. Excitation was carried out at wavelengths of 365 and 405 nm and 2 s illumination time. Each image was calibrated to a fluorescence standard (Uranyl Standard, J&M, Analytische Mess- and Regeltechnik GmbH, Hamburg, Germany) and adjusted for background fluorescence. The mean amount of skin fluorescence in each image was calculated by means of image analyzer-software (MatLab 7.2.0.232, Math-Works, Natick, Mass., USA) and the mean amount of skin fluorescence for each group of mice (5 mice/compound) was calculated.
# [4] = test system: UV-damaged mouse skin versus healthy mouse skin; assay: In vivo skin fluorescence in healthy nude mice and nude mice with UV-damaged skin; conditions: nude mice; for Ratio of skin fluorescence in UV-damaged mouse skin to skin fluorescence in healthy mouse skin: equimolar creams (16% / 14%), about 125 μl, tape-stripped skin, 3 hours in the dark, 10 mice per group; for Selectivity for UV-damaged skin: equimolar creams, 3 hours
# Description: An experiment was carried out to assess the potential for compound 6 to show selective accumulation in UV-damaged skin. For the assessment, skin fluorescence after application of the compound was measured in vivo in healthy mouse skin and in UV-damaged mouse skin. A nude mice model with UV-damaged skin (actinic damage) was established as described by K. Togsverd-Bo et al., Exp. Dermatol. 2012, 21, 260-264.
# Equimolar amounts of compound 2 (1-(isopropyl carboxy)ethyl 5-amino-4-oxopentanoate hydrochloride prepared according to Example 2) and compound 5 (3-carboxypropyl 5 amino-4-oxopentanoate hydrochloride prepared according to Example 5) were formulated as a cream in Unguentum Merck: compound 2: 16%, 160 mg/g and compound 5: 14%, 140 mg/g, respectively.
# One group of healthy nude mice (10 mice, control group) and one group of nude mice with UV-damaged skin (10 mice) were included in the experiment. About 125 μl of cream formulation was applied onto the back of each mouse. Prior to cream application, the dorsal skin of each mouse was tape-stripped five times to enhance penetration of the compound: adhesive film (Scotch tape, 3M) was pressed onto the skin of the application area, the tape strip was removed with one quick movement and a new tape strip was used. The mice were kept in the dark for 3 hours prior to skin fluorescence measurement to avoid photobleaching. Skin fluorescence was assessed as described in Example 17 and the mean amount of skin fluorescence for each group of mice was calculated.
# The ratio of skin fluorescence [a.u] in UV-damaged mouse skin to skin fluorescence [a.u.] in healthy mouse skin was determined.
# [5] = test system: Rat bladder cells (AY-27); assay: PpIX measurements in rat bladder cells; type: cell-based; conditions: AY-27 cells, 2 hours incubation
# Description: Rat bladder cells (AY-27) were grown in the culture medium (RPMI 1640 supplemented with 9% fetal calf serum 1% L-glutamin (200 mM) and 1% penicillin (10 000 UI), streptomycin (10 000 μg·mL^−1). Exponentially growing cells (AY-27) were incubated for 2 hours with freshly prepared solutions of 0.8 mM HAL (which is a tenth of the concentration which is used for bladder cancer […]). Control cells received serum-free medium without any test or reference compounds. After the incubation, the solutions or the medium was discarded and the cells were rinsed 2 times with ice-cooled PBS. PpIX was extracted from cells using an ice-cold lysis extraction mixture, consisting of ethanol/DMSO/acetic acid (80/20/1, v/v/v). The cell lysate was centrifuged (400 g, 10 min, 2° C.), the pellet was grinded and the suspension was sonicated for 15 min before being centrifuged. The fluorescence signal of PpIX was measured with a Perkin-Elmer LS 55 spectrometer (Perkin-Elmer, Beaconsfield, UK) and expressed as a function of the protein content. The fluorescence intensity at 635 nm in each sample was reported on a calibration curve established with PpIX (Sigma-Aldrich, France) diluted in extraction mixture as described above. The PpIX concentration was expressed relative to the protein content. Briefly, a lysis buffer mixture (1 mM EDTA, 1% Triton X-100 and 10 mM Tris-HCl; pH 7.4) was added to frozen cell dishes together with 500 mM PMSF (anti-protease) solution in DMSO. Lysates were kept on ice for 30 minutes and centrifuged at 4° C. for 20 minutes at 15 000 g. The protein content was then measured against a BSA calibration curve by a Biorad DC protein assay kit (Bio-Rad, France) based on a method developed by Lowry.
# [6] = test system: Rat bladder cells (AY-27); assay: Cytotoxicity in rat bladder cells (MTT test); type: cell-based; conditions: AY-27 cells; for Cytotoxicity: 2 hours, MTT test; for Levels of cytotoxicity compared to HAL: compound at 1 mM
# Description: All experiments were performed in 4-5 replicates under subdued light. For concentrations of compounds 1 mM, the cytotoxicity was assessed with MTT test. Exponentially growing cells were incubated with freshly prepared solution or medium as described above for 2 hours in 96-well plates. After the incubation, the solutions or the medium was discarded and the cells were washed twice with PBS. Then 50 μl of MTT (2.5 mg·ml^−1) was added to 150 μl of RPMI serum-free medium per well and incubated for 3 hours. Absorbance was measured by dissolving formazan crystals with 50 μl of DMSO. The absorbance was normalized to that of control cells.
# [7] = WiDr cells, 0.001-1 mM, 4 hours incubation, * mean of two, ** mean of 3 experiments
compound,measurement,setting,value
"Cl.NCC(=O)CCC(=O)O [ALA, 5-ALA hydrochloride, reference compound]",Dark toxicity (cell toxicity in the absence of light),[1],no cell toxicity was observed
same,Max. PpIX content,[2]; [7],80* ng/mg protein
same,Compound concentration for max PpIX formation,"[2]; WiDr cells, 4 hours incubation",≧1 mM
"CC(C)OC(=O)C(C)OC(=O)CCC(=O)CN (centres unmarked) [Compound 2, 1-(isopropylcarboxy)ethyl 5-amino-4-oxopentanoate hydrochloride]",Skin fluorescence,[3],31557 a.u.
same,Ratio of skin fluorescence in UV-damaged mouse skin to skin fluorescence in healthy mouse skin,[4],1.14
same,Selectivity for UV-damaged skin,[4],some selectivity for UV-damaged skin
"NCC(=O)CCC(=O)OCCCC(=O)O [Compound 5, 3-carboxypropyl 5-amino-4-oxopentanoate hydrochloride]",Ratio of skin fluorescence in UV-damaged mouse skin to skin fluorescence in healthy mouse skin,[4],2.72
same,Selectivity for UV-damaged skin,[4],pronounced selectivity for UV-damaged skin
same,Dark toxicity (cell toxicity in the absence of light),[1],no cell toxicity was observed
same,Max. PpIX content,[2]; [7],30 ng/mg protein
same,Compound concentration for max PpIX formation,"[2]; WiDr cells, 4 hours incubation",1 mM
same,PpIX Mean ± SD,[5]; 0.3 mM,221 ± 32 pmoles/mg protein
same,PpIX Mean ± SD,[5]; 0.5 mM,224 ± 35 pmoles/mg protein
same,PpIX Mean ± SD,[5]; 1 mM,261 ± 52 pmoles/mg protein
same,PpIX Mean ± SD,[5]; 5 mM,250 ± 83 pmoles/mg protein
same,PpIX Mean ± SD,[5]; 15 mM,216 ± 11 pmoles/mg protein
same,Cytotoxicity,[6]; 1 mM,17 % of control
same,Cytotoxicity,[6]; 5 mM,30 % of control
same,Cytotoxicity,[6]; 15 mM,37 % of control
same,Levels of cytotoxicity compared to HAL,[6],comparable and acceptable
"NCC(=O)CCC(=O)OCc1ccc(C(=O)O)cc1 [Compound 7, (4-carboxyphenyl)methyl 5-amino-4-oxopentanoate hydrobromide]",Skin fluorescence,[3],2995 a.u.
"NCC(=O)CCC(=O)OCCCCC(=O)O [Compound 8, 4-carboxybutyl 5-amino-4-oxopentanoate hydrochloride]",PpIX Mean ± SD,[5]; 0.3 mM,243 ± 28 pmoles/mg protein
same,PpIX Mean ± SD,[5]; 0.5 mM,219 ± 51 pmoles/mg protein
same,PpIX Mean ± SD,[5]; 1 mM,258 ± 62 pmoles/mg protein
same,PpIX Mean ± SD,[5]; 5 mM,234 ± 78 pmoles/mg protein
same,PpIX Mean ± SD,[5]; 15 mM,213 ± 64 pmoles/mg protein
same,Cytotoxicity,[6]; 1 mM,18 % of control
same,Cytotoxicity,[6]; 5 mM,26 % of control
same,Cytotoxicity,[6]; 15 mM,38 % of control
same,Levels of cytotoxicity compared to HAL,[6],comparable and acceptable
"NCC(=O)CCC(=O)OCCCCCC(=O)O [Compound 9, 5-carboxypentyl 5-amino-4-oxopentanoate hydrochloride]",Dark toxicity (cell toxicity in the absence of light),[1],no cell toxicity was observed
same,Compound concentration for max PpIX formation,[2],1 mM
same,Max. PpIX content,[2],40 ng/mg protein
"NCC(=O)CCC(=O)OCCCCCCCC(=O)O [Compound 10, 7-carboxyheptyl 5-amino-4-oxopentanoate hydrochloride]",Dark toxicity (cell toxicity in the absence of light),[1],no cell toxicity was observed
same,Compound concentration for max PpIX formation,[2],1 mM
same,Max. PpIX content,[2],55* ng/mg protein
"NCC(=O)CCC(=O)OCCCCCCCCCC(=O)O [Compound 12, 9-carboxynonyl 5-amino-4-oxopentanoate hydrochloride]",Dark toxicity (cell toxicity in the absence of light),[1],no cell toxicity was observed
same,Max. PpIX content,[2]; [7],90* ng/mg protein
same,Compound concentration for max PpIX formation,"[2]; WiDr cells, 4 hours incubation",0.05 mM
"NCC(=O)CCC(=O)OCCCCCCCCCCCC(=O)O [Compound 14, 11-carboxyundecyl 5-amino-4-oxopentanoate hydrochloride]",Dark toxicity (cell toxicity in the absence of light),[1],no cell toxicity was observed
same,Compound concentration for max PpIX formation,[2],0.1 mM
same,Max. PpIX content,[2],65* ng/mg protein
"Cl.NCC(=O)CCC(=O)OCCCCCCCCCCCCCCCC(=O)O [Compound 15, 15-carboxypentadecyl 5-amino-4-oxopentanoate hydrochloride]",Concentrations at which compound was toxic (dark toxicity),[1]; 4 hours in the dark,above 0.1 mM
same,Compound concentration for max PpIX formation,[2],0.1 mM
same,Max. PpIX content,[2]; [7],25 ng/mg protein
"CCCCCCOC(=O)CCC(=O)CN.Cl [HAL, 5-ALA hexyl ester hydrochloride, reference compound]",Dark toxicity (cell toxicity in the absence of light),[1],weak cell toxicity
same,Minimum cell survival rate,"[1]; range of 0.3 to 1 mM, 4 hours in the dark",85%
same,Max. PpIX content,[2]; [7],94** ng/mg protein
same,Compound concentration for max PpIX formation,"[2]; WiDr cells, 4 hours incubation",0.1 mM
same,Cytotoxicity,[6]; 0.8 mM,15 % of control
